This note sets out measurements from publication PMC5218480 (PLoS ONE, 2017).

The structures appear in SMILES notation.

The test system of the assay is MV-4-11 cells. As to the kind of experiment: Gene expression microarray analysis (Affymetrix PrimeView) and GSEA. It counts as cell-based, human. Details: RFU PODN (11730768_x_at) / Fold change /veh PODN (11730768_x_at) / RFU LINC00158 (11744669_a_at) / Fold change /veh LINC00158 (11744669_a_at) / RFU DUSP10 (11751237_a_at) / Fold change /veh DUSP10 (11751237_a_at) / RFU ID3 (11757404_x_at) / Fold change /veh ID3 (11757404_x_at) / RFU PLEKHG5 (11737974_s_at) / Fold change /veh PLEKHG5 (11737974_s_at) / RFU LRRC4B (11730491_at) / Fold change /veh LRRC4B (11730491_at) / RFU GIMAP4 (11747438_a_at) / Fold change /veh GIMAP4 (11747438_a_at) / RFU KRT8 (11758183_x_at) / Fold change /veh KRT8 (11758183_x_at) / RFU CNN1 (11734310_a_at) / Fold change /veh CNN1 (11734310_a_at) / RFU VPS37D (11726825_at) / Fold change /veh VPS37D (11726825_at) / RFU C10orf10 (11716522_x_at) / Fold change /veh C10orf10 (11716522_x_at) / RFU KIR2DL2 /// KIR2DL4 /// KIR2DL5A /// KIR2DL5B /// KIR2DS1 /// KIR2DS2 /// KIR2DS3 /// KIR2DS4 /// KIR3DL3 /// KIR3DL3 /// KIR3DS1 (11738374_at) / Fold change /veh KIR2DL2 /// KIR2DL4 /// KIR2DL5A /// KIR2DL5B /// KIR2DS1 /// KIR2DS2 /// KIR2DS3 /// KIR2DS4 /// KIR3DL3 /// KIR3DL3 /// KIR3DS1 (11738374_at) / RFU C1QL1 (11718748_at) / Fold change /veh C1QL1 (11718748_at) / RFU TMPRSS4 (11747572_a_at) / Fold change /veh TMPRSS4 (11747572_a_at) / RFU HAMP (11756126_x_at) / Fold change /veh HAMP (11756126_x_at) / RFU RNFT2 (11725882_a_at) / Fold change /veh RNFT2 (11725882_a_at) / RFU NR4A2 (11747474_a_at) / Fold change /veh NR4A2 (11747474_a_at) / RFU ABCC12 (11746883_a_at) / Fold change /veh ABCC12 (11746883_a_at) / RFU TMEM136 (11760407_x_at) / Fold change /veh TMEM136 (11760407_x_at) / RFU CLDN22 /// WWC2 (11732394_at) / Fold change /veh CLDN22 /// WWC2 (11732394_at) / RFU HLA-DPB1 (11760878_x_at) / Fold change /veh HLA-DPB1 (11760878_x_at) / RFU SPINT1 (11716480_a_at) / Fold change /veh SPINT1 (11716480_a_at) / RFU GAP43 (11754022_s_at) / Fold change /veh GAP43 (11754022_s_at) / RFU A4GNT (11735810_at) / Fold change /veh A4GNT (11735810_at) / RFU PRB3 (11715151_x_at) / Fold change /veh PRB3 (11715151_x_at) / RFU TUBB4B (11761932_at) / Fold change /veh TUBB4B (11761932_at) / RFU CAPN14 (11732068_a_at) / Fold change /veh CAPN14 (11732068_a_at) / RFU TMCC2 (11721928_a_at) / Fold change /veh TMCC2 (11721928_a_at) / RFU IRGQ (11745062_a_at) / Fold change /veh IRGQ (11745062_a_at) / RFU FAM174B (11720279_a_at) / Fold change /veh FAM174B (11720279_a_at) / RFU TMPRSS4 (11748680_a_at) / Fold change /veh TMPRSS4 (11748680_a_at) / RFU FAM212B (11763350_a_at) / Fold change /veh FAM212B (11763350_a_at) / RFU PLEKHG5 (11743358_a_at) / Fold change /veh PLEKHG5 (11743358_a_at) / RFU ZSCAN30 (11745921_a_at) / Fold change /veh ZSCAN30 (11745921_a_at) / RFU CMKLR1 (11741424_a_at) / Fold change /veh CMKLR1 (11741424_a_at) / RFU LOC101060620 /// MAPK8IP1 (11723275_at) / Fold change /veh LOC101060620 /// MAPK8IP1 (11723275_at) / RFU SPTSSB (11747773_x_at) / Fold change /veh SPTSSB (11747773_x_at) / RFU PRSS12 (11739890_at) / Fold change /veh PRSS12 (11739890_at) / RFU BIN1 (11741810_x_at) / Fold change /veh BIN1 (11741810_x_at) / RFU WNT11 (11732464_a_at) / Fold change /veh WNT11 (11732464_a_at) / RFU C10orf10 (11716521_a_at) / Fold change /veh C10orf10 (11716521_a_at) / RFU C5orf56 (11738089_at) / Fold change /veh C5orf56 (11738089_at) / RFU CYB561 (11721691_x_at) / Fold change /veh CYB561 (11721691_x_at) / RFU ANKRD19P (11752326_a_at) / Fold change /veh ANKRD19P (11752326_a_at) / RFU OR2T12 /// OR2T33 /// OR2T8 (11738714_s_at) / Fold change /veh OR2T12 /// OR2T33 /// OR2T8 (11738714_s_at) / RFU VCAN (11748164_a_at) / Fold change /veh VCAN (11748164_a_at) / RFU JSRP1 (11732532_at) / Fold change /veh JSRP1 (11732532_at) / RFU KRTAP10-11 (11738290_x_at) / Fold change /veh KRTAP10-11 (11738290_x_at) / RFU MYO3A (11730013_a_at) / Fold change /veh MYO3A (11730013_a_at) / RFU EBF3 (11725865_a_at) / Fold change /veh EBF3 (11725865_a_at) / RFU CAMK2N1 (11719241_x_at) / Fold change /veh CAMK2N1 (11719241_x_at) / RFU C5orf56 (11738088_a_at) / Fold change /veh C5orf56 (11738088_a_at) / RFU OLFML3 (11715873_a_at) / Fold change /veh OLFML3 (11715873_a_at) / RFU LOC100653217 /// NTM (11731650_a_at) / Fold change /veh LOC100653217 /// NTM (11731650_a_at) / RFU MAPK11 (11762145_a_at) / Fold change /veh MAPK11 (11762145_a_at) / RFU FIZ1 (11724087_x_at) / Fold change /veh FIZ1 (11724087_x_at) / RFU OASL (11726364_x_at) / Fold change /veh OASL (11726364_x_at) / RFU SOX15 (11748057_x_at) / Fold change /veh SOX15 (11748057_x_at) / RFU CD79A (11719716_a_at) / Fold change /veh CD79A (11719716_a_at) / RFU HIST1H1D (11736915_at) / Fold change /veh HIST1H1D (11736915_at) / RFU CASKIN2 (11723855_a_at) / Fold change /veh CASKIN2 (11723855_a_at) / RFU LOC730098 (11760151_x_at) / Fold change /veh LOC730098 (11760151_x_at) / RFU OR4N2 (11742367_at) / Fold change /veh OR4N2 (11742367_at) / RFU PRRT2 (11749266_a_at) / Fold change /veh PRRT2 (11749266_a_at) / RFU SNX32 (11753110_a_at) / Fold change /veh SNX32 (11753110_a_at) / RFU CDHR5 (11726645_a_at) / Fold change /veh CDHR5 (11726645_a_at) / RFU RCAN1 (11760418_a_at) / Fold change /veh RCAN1 (11760418_a_at) / RFU FAM167A (11723789_a_at) / Fold change /veh FAM167A (11723789_a_at) / RFU FAM26E (11764081_at) / Fold change /veh FAM26E (11764081_at) / RFU ISYNA1 (11749810_s_at) / Fold change /veh ISYNA1 (11749810_s_at) / RFU ACY1 (11761880_at) / Fold change /veh ACY1 (11761880_at) / RFU 11764098_at / Fold change /veh 11764098_at / RFU SAMD14 (11745864_x_at) / Fold change /veh SAMD14 (11745864_x_at) / RFU NPB (11741838_a_at) / Fold change /veh NPB (11741838_a_at) / RFU TMPRSS6 (11731388_a_at) / Fold change /veh TMPRSS6 (11731388_a_at) / RFU KRTAP10-2 (11738614_at) / Fold change /veh KRTAP10-2 (11738614_at) / RFU ARHGAP8 /// PRR5-ARHGAP8 (11727945_x_at) / Fold change /veh ARHGAP8 /// PRR5-ARHGAP8 (11727945_x_at) / RFU KRTAP5-7 /// NADSYN1 (11734609_at) / Fold change /veh KRTAP5-7 /// NADSYN1 (11734609_at) / RFU RASL12 (11751679_a_at) / Fold change /veh RASL12 (11751679_a_at) / RFU CDKN2B (11736163_a_at) / Fold change /veh CDKN2B (11736163_a_at) / RFU PRF1 (11729649_at) / Fold change /veh PRF1 (11729649_at) / RFU, ZNF638 /// ZNF638-IT1 / Fold change vs veh, ZNF638 /// ZNF638-IT1 / RFU, PANK3 / Fold change vs veh, PANK3 / RFU, SH3YL1 / Fold change vs veh, SH3YL1 / RFU, ZEB2 / Fold change vs veh, ZEB2 / RFU, NRIP1 / Fold change vs veh, NRIP1 / RFU, PTTG1IP / Fold change vs veh, PTTG1IP / RFU, CAPN2 / Fold change vs veh, CAPN2 / RFU, MED14 / Fold change vs veh, MED14 / RFU, SNORA58 / Fold change vs veh, SNORA58 / RFU, C1orf63 / Fold change vs veh, C1orf63 / RFU, LRRFIP1 / Fold change vs veh, LRRFIP1 / RFU, NDUFAF7 / Fold change vs veh, NDUFAF7 / RFU, SLC12A2 / Fold change vs veh, SLC12A2 / RFU, IBTK / Fold change vs veh, IBTK / RFU, ESF1 / Fold change vs veh, ESF1 / Fold change vs veh, TMEM50B / RFU, TAOK1 / Fold change vs veh, TAOK1 / RFU, ACBD3 / Fold change vs veh, ACBD3 / RFU, TMA16 / Fold change vs veh, TMA16 / RFU, RWDD3 / Fold change vs veh, RWDD3 / RFU, BCAT1 / Fold change vs veh, BCAT1 / RFU, EDEM3 / Fold change vs veh, EDEM3 / RFU, TMEM33 / Fold change vs veh, TMEM33 / RFU, WDR75 / Fold change vs veh, WDR75 / RFU, AHCTF1 / Fold change vs veh, AHCTF1 / RFU, TFRC / Fold change vs veh, TFRC / RFU, ZDHHC17 / Fold change vs veh, ZDHHC17 / RFU, NOM1 / Fold change vs veh, NOM1 / RFU, ARL8B / Fold change vs veh, ARL8B / RFU, ZBTB11 / Fold change vs veh, ZBTB11 / RFU, TAMM41 / Fold change vs veh, TAMM41 / RFU, KIAA1704 /// LOC100996395 / Fold change vs veh, KIAA1704 /// LOC100996395 / RFU, ING1 / Fold change vs veh, ING1 / RFU, TRMT61B / Fold change vs veh, TRMT61B / RFU, FUBP3 / Fold change vs veh, FUBP3 / RFU, TP53 / Fold change vs veh, TP53 / RFU, TNKS2 / Fold change vs veh, TNKS2 / RFU, ZFP14 / Fold change vs veh, ZFP14 / RFU, ACTR2 / Fold change vs veh, ACTR2 / RFU, PPP3R1 / Fold change vs veh, PPP3R1 / RFU, PIK3R1 / Fold change vs veh, PIK3R1 / RFU, HNRNPA1 / Fold change vs veh, HNRNPA1 / RFU, RNF170 / Fold change vs veh, RNF170 / RFU, ZNF28 / Fold change vs veh, ZNF28 / RFU, RNGTT / Fold change vs veh, RNGTT / RFU, OGT / Fold change vs veh, OGT / RFU, BRD1 / Fold change vs veh, BRD1 / RFU, MARS / Fold change vs veh, MARS / RFU, ZNF655 / Fold change vs veh, ZNF655 / RFU, FAHD1 / Fold change vs veh, FAHD1 / RFU, BDP1 / Fold change vs veh, BDP1 / RFU, LRRCC1 / Fold change vs veh, LRRCC1 / RFU, ARID1A / Fold change vs veh, ARID1A / RFU, ZNF146 / Fold change vs veh, ZNF146 / RFU, ZNF330 / Fold change vs veh, ZNF330 / RFU, GPN3 / Fold change vs veh, GPN3 / RFU, C9orf123 / Fold change vs veh, C9orf123 / RFU, N4BP2L2 / Fold change vs veh, N4BP2L2 / RFU, ARFIP1 / Fold change vs veh, ARFIP1 / RFU, FAM179B / Fold change vs veh, FAM179B / RFU, BCL10 / Fold change vs veh, BCL10 / RFU, UHRF1BP1L / Fold change vs veh, UHRF1BP1L / RFU, BET1 / Fold change vs veh, BET1 / RFU, CNOT2 / Fold change vs veh, CNOT2 / RFU, ZNF268 / Fold change vs veh, ZNF268 / Fold change vs veh, ZNF507 / RFU, DGCR2 / Fold change vs veh, DGCR2 / RFU, WDSUB1 / Fold change vs veh, WDSUB1 / Fold change vs veh, HSP90B1 /// MIR3652 / RFU, ADSS / Fold change vs veh, ADSS / RFU, GK / Fold change vs veh, GK / RFU, ZNF148 / Fold change vs veh, ZNF148 / RFU, TAF9 / Fold change vs veh, TAF9 / RFU, SLC1A5 / Fold change vs veh, SLC1A5 / RFU, SLMO2 / Fold change vs veh, SLMO2 / RFU, ABCC4 / Fold change vs veh, ABCC4 / RFU, LOC101060439 /// RAP1B / Fold change vs veh, LOC101060439 /// RAP1B / RFU, RFX7 / Fold change vs veh, RFX7 / RFU, GTPBP10 / Fold change vs veh, GTPBP10 / RFU, CNEP1R1 / Fold change vs veh, CNEP1R1 / RFU, BIVM-ERCC5 /// ERCC5 / Fold change vs veh, BIVM-ERCC5 /// ERCC5 / RFU, ILF3 / Fold change vs veh, ILF3 / RFU 11762660_at / Fold change /veh 11762660_at / RFU VCAN (11757783_s_at) / Fold change /veh VCAN (11757783_s_at) / RFU DDX43 (11728927_at) / Fold change /veh DDX43 (11728927_at) / RFU KRT8 (11758188_x_at) / Fold change /veh KRT8 (11758188_x_at) / RFU NKD1 (11759106_at) / Fold change /veh NKD1 (11759106_at) / RFU SRD5A1 (11742802_a_at) / Fold change /veh SRD5A1 (11742802_a_at) / RFU TPSAB1 /// TPSB2 (11721975_s_at) / Fold change /veh TPSAB1 /// TPSB2 (11721975_s_at) / RFU GSTM3 (11746129_a_at) / Fold change /veh GSTM3 (11746129_a_at) / RFU IL23R (11737362_x_at) / Fold change /veh IL23R (11737362_x_at) / RFU TMEM51 (11727254_a_at) / Fold change /veh TMEM51 (11727254_a_at) / RFU PIWIL2 (11732686_x_at) / Fold change /veh PIWIL2 (11732686_x_at) / RFU ORM1 (11744905_x_at) / Fold change /veh ORM1 (11744905_x_at) / RFU CCDC152 (11743942_at) / Fold change /veh CCDC152 (11743942_at) / RFU ECM1 (11717891_a_at) / Fold change /veh ECM1 (11717891_a_at) / RFU IL23R (11748794_a_at) / Fold change /veh IL23R (11748794_a_at) / RFU TNFAIP8L3 (11732012_x_at) / Fold change /veh TNFAIP8L3 (11732012_x_at) / RFU MBOAT4 (11741988_at) / Fold change /veh MBOAT4 (11741988_at) / RFU 11764193_at / Fold change /veh 11764193_at / RFU TMEM53 (11763286_at) / Fold change /veh TMEM53 (11763286_at) / RFU MAGEB2 (11727129_at) / Fold change /veh MAGEB2 (11727129_at) / RFU TMEM200A (11744735_a_at) / Fold change /veh TMEM200A (11744735_a_at) / RFU CCDC152 (11751479_a_at) / Fold change /veh CCDC152 (11751479_a_at) / RFU FAM211A (11726209_a_at) / Fold change /veh FAM211A (11726209_a_at) / RFU RGS16 (11746705_a_at) / Fold change /veh RGS16 (11746705_a_at) / RFU VCAN (11755009_s_at) / Fold change /veh VCAN (11755009_s_at) / RFU RHOB (11743442_s_at) / Fold change /veh RHOB (11743442_s_at) / RFU RGS16 (11720943_a_at) / Fold change /veh RGS16 (11720943_a_at) / RFU RGS16 (11720944_at) / Fold change /veh RGS16 (11720944_at) / RFU, VPS4B / Fold change vs veh, VPS4B / RFU, CREB1 / Fold change vs veh, CREB1 / RFU, DNAJC13 / Fold change vs veh, DNAJC13 / RFU, GNAQ / Fold change vs veh, GNAQ / RFU, CDK5R1 / Fold change vs veh, CDK5R1 / RFU, ZRANB3 / Fold change vs veh, ZRANB3 / RFU, CUL4A / Fold change vs veh, CUL4A / RFU, CCNY / Fold change vs veh, CCNY / RFU, UFL1 / Fold change vs veh, UFL1 / RFU, COG3 / Fold change vs veh, COG3 / RFU, DIAPH2 / Fold change vs veh, DIAPH2 / RFU, SKA2 / Fold change vs veh, SKA2 / RFU, AFF3 / Fold change vs veh, AFF3 / RFU, LMF1 / Fold change vs veh, LMF1 / RFU, IPO11 / Fold change vs veh, IPO11 / RFU, DFFB / Fold change vs veh, DFFB / RFU, FOXP1 / Fold change vs veh, FOXP1 / RFU, CARD8 / Fold change vs veh, CARD8 / RFU, STRN3 / Fold change vs veh, STRN3 / RFU, ADK / Fold change vs veh, ADK / RFU, RASSF2 / Fold change vs veh, RASSF2 / RFU, WIPF1 / Fold change vs veh, WIPF1 / RFU, LARP1B / Fold change vs veh, LARP1B / RFU, RASA1 / Fold change vs veh, RASA1 / RFU, RB1 / Fold change vs veh, RB1 / RFU, PPFIA1 / Fold change vs veh, PPFIA1 / RFU, MAT2A / Fold change vs veh, MAT2A / RFU, CCT5 / Fold change vs veh, CCT5 / RFU, WDR92 / Fold change vs veh, WDR92 / RFU, CUX1 / Fold change vs veh, CUX1 / RFU, TTC7A / Fold change vs veh, TTC7A / RFU, TMEM135 / Fold change vs veh, TMEM135 / RFU, DEPTOR / Fold change vs veh, DEPTOR / RFU, CPM / Fold change vs veh, CPM / RFU, DNAJB6 / Fold change vs veh, DNAJB6 / RFU, CACNA2D3 / Fold change vs veh, CACNA2D3 / RFU, DTX4 / Fold change vs veh, DTX4 / RFU, TFCP2 / Fold change vs veh, TFCP2 / RFU, GMCL1 /// GMCL1P1 / Fold change vs veh, GMCL1 /// GMCL1P1 / RFU, AEBP2 / Fold change vs veh, AEBP2 / RFU, SNHG1 /// SNORD22 /// SNORD25 /// SNORD26 /// SNORD27 /// SNORD28 /// SNORD29 /// SNORD31 / Fold change vs veh, SNHG1 /// SNORD22 /// SNORD25 /// SNORD26 /// SNORD27 /// SNORD28 /// SNORD29 /// SNORD31 / Fold change (Aza/veh), C12orf56 (ProbeSet 11735607_a_at) / Fold change (ACY-1035/veh), C12orf56 (ProbeSet 11735607_a_at) / Fold change (Aza/veh), FGFR1OP (ProbeSet 11751329_s_at) / Fold change (ACY-1035/veh), FGFR1OP (ProbeSet 11751329_s_at) / Fold change (Aza/veh), VPS36 (ProbeSet 11739960_a_at) / Fold change (ACY-1035/veh), VPS36 (ProbeSet 11739960_a_at) / RFU SYPL1 (11715823_x_at) / Fold change /veh SYPL1 (11715823_x_at) / RFU IGFBP7 (11715501_s_at) / Fold change /veh IGFBP7 (11715501_s_at) / RFU REEP3 (11722064_at) / Fold change /veh REEP3 (11722064_at) / RFU IGLL1 (11728026_x_at) / Fold change /veh IGLL1 (11728026_x_at): dose or concentration left out as unconfirmed. As to conditions: MV-4-11 cells, 48 hours.

Consider `Nc1ncn([C@@H]2O[C@H](CO)[C@@H](O)[C@H]2O)c(=O)n1` [azacitidine], for which the “Fold change /veh ABCC12 (11746883_a_at)” value is 0.93.
